“Also recorded” adds a separate entry of the source.
Legend:
patients = settings: dose of 2 g daily; dose-dependent; cited from earlier work
[1] = tested on: CD4+ regulatory T cells (CD4+ Foxp3+) in PBMC; experiment: CD4+ Tregs within PBMC of treated mice; assay type: in vivo, mouse; settings: LAQ 1 or 25 mg/kg; compared to the other groups
Text: FIG. 7 depicts an exemplary embodiment: A) illustrates gating technique used to identify CD4+ regulatory T cells (CD4+ Tregs), which are shown as the dotted cloud inside the box insert and also labeled as CD4+ Foxp3+.

[2] = tested on: CD3/28-stimulated CD4^+CD25^− T cell proliferation; experiment: T cell suppression assay and function of MDSC sorted from spleens of treated mice; assay type: cell-based, mouse; settings: data not shown
Experimental: Single cell suspensions of splenocytes or kidney cells were prepared using cell strainers (Fisher), followed by red blood cell lysis. Kidney lymphocytes were separated from connective tissue by centrifugation (15 minutes at 400g) in 30% Percoll (GE Healthcare). CD4^+CD25^− cells from spleen and kidney were isolated using the CD4^+CD25^+ regulatory T cell isolation kit according to manufacturer's protocol (Miltenyi). CD11b+ cells were isolated using EasySep mouse CD11b positive selection kit (StemCell Technologies), surface stained for Ly6C and Ly6G prior to sorting myeloid-derived suppressor cells (MDSC) using FACSAria II. Populations were >95% pure by FACS analysis. CD4^+CD25^− cells were labelled with 5 µM CFSE and stimulated with Dynabeads mouse T-cell activator CD3/CD28 (Invitrogen). Stimulated CD4^+CD25^− cells (4×10^4) were co-cultured with monocytic-MDSC(CD11b^+Ly6C^+Ly6G^−) or granulocytic-MDSC(CD11b^+Ly6C^+Ly6G^+) at a 1:1 ratio. Proliferation of CD4^+ cells was assayed after 4 days of incubation at 37° C., 5% CO2 by flow cytometry.

[3] = tested on: monocyte/macrophages (CD11b^+Ly6C^−Ly6G^−) and CD4^+ T cells; experiment: Intracellular cytokines in splenocytes of treated mice after TLR agonist or PMA plus ionomycin stimulation; assay type: cell-based, mouse; settings: vs vehicle
Experimental: For intracellular cytokines, whole splenocytes were stimulated with a) LPS (1 μg/mL) (Sigma), imiquimod, a toll like receptor 7 (TLR7) agonist, or ODN, a TLR9 agonist (both at 10 μg/mL) in 2% FBS RPMI 1640 for 24 hours in the presence of monensin (BioLegend) for the last 12 hours; or b) phorbol 12-myristate 13-acetate (PMA, 50 ng/ml) plus ionomycin (500 ng/ml) in the presence of monensin for 5 hours. Monensin was used to prevent cytokine secretion and optimize intracellular staining Intracellular expression of cytokines in CD4^+ cells and macrophages (CD11b^+Ly6C^−Ly6G^−) was analyzed by intracellular flow cytometry. Single-cell suspensions from spleen or kidneys were stained for extracellular markers for 20 min at 4° C. in PBS/1% FBS. Intracellular staining for Foxp3 and cytokines was performed using the Foxp3 Fixation/Permeabilization kit according to the manufacturer's protocol (eBioscience). Cells were acquired on a FACS LSR II (BD) and data was analyzed using Flowjo (Tree Star).

[4] = tested on: monocyte/macrophages (CD11b^+Ly6C^−Ly6G^−); experiment: Expression of activation/costimulatory molecules on splenic monocyte/macrophages of treated mice; assay type: cell-based, mouse
Text: Spleens were removed 7 weeks after initiation of laquinimod treatment in PU^lo animals. Splenocytes were stimulated with TLR4 (LPS), 7 (imiquimod), or 9 (ODN) agonists, or PMA plus ionomycin, as described. FACS plots are representative of one experiment showing intracellular production of (A) IL-10 or (B) TNFα by monocyte/macrophages (CD11b+Ly6C−Ly6G−), and (C) IFNγ by CD4^+ T cells from laquinimod- or vehicle-treated mice. Graphs of IL-10, TNFα, and IFNγ production represent mean±SEM of cytokine production (n=6/gp, *p<0.05, **p<0.01, ***p<0.001 using two way ANOVA). […] Graphs depict mean±SD of mean fluorescence intensity (MFI) and are from three independent experiments with similar results. (n=4/gp, *p<0.05, **p<0.01, ***p<0.001 using t test).
Single-cell suspensions from spleen or kidneys were stained for extracellular markers for 20 min at 4° C. in PBS/1% FBS. Intracellular staining for Foxp3 and cytokines was performed using the Foxp3 Fixation/Permeabilization kit according to the manufacturer's protocol (eBioscience). Cells were acquired on a FACS LSR II (BD) and data was analyzed using Flowjo (Tree Star).

MS patients = settings: compared to placebo; cited from earlier work

SMILES	Patients with gastrointestinal side effects (patients)	Percentage of CD4+ Tregs within PBMC [1]	Production of arginase and reactive oxygen species (MDSC) [2]	IL-10^+ M/M ([3]; splenic M/M after TLR agonist stimulation, PU^lo animals, 7 weeks of treatment)	M/M producing TNF-α ([3]; splenic M/M after TLR agonist stimulation, listed as laquinimod)	CD4^+ T cells producing IFN-γ ([3]; splenocytes, PMA plus ionomycin)	Expression of MHC 11, CD86 and CD80 on M/M after in vitro stimulation with LPS ([4]; LPS 1 μg/mL)	Ex vivo expression of MHC 11, CD86 and CD40 on M/M ([4]; vs vehicle-treated animals, listed as laquinimod)	New MRI lesions in the brains of patients with RRMS (MS patients)
COc1c(C)c2c(c(O)c1C/C=C(\C)CCC(=O)OCCN1CCOCC1)C(=O)OC2 [MMF, mycophenolate mofetil, reference compound]	up to 20%	–	–	–	–	–	–	–	–
CCN(C(=O)c1c(O)c2c(Cl)cccc2n(C)c1=O)c1ccccc1 [LAQ, 5-chloro-N-ethyl-4-hydroxy-1-methyl-2-oxo-N-phenyl-1,2-dihydroquinoline-3-carboxamide]	–	significantly higher percent	not affected	Significantly more	unable to respond; also recorded: significantly fewer	significantly fewer	significantly lower	decreased expression; also recorded: down-regulated	significant reduction
